Columns and labels:
[1] = test system: fibrinogen-mediated platelet aggregation; experiment: Aggregometry assay of free peptides in platelet-rich plasma; type: cell-based, human
Procedure: Affinity of free lRGD and cRGD peptides to bind activated platelets was characterized by ‘half maximal Inhibitory Concentration’ (IC50) value, which, in our assays, was the concentration of peptide required to inhibit fibrinogen-mediated platelet aggregation in platelet-rich plasma (PRP) by 50%, in an aggregometry (Bio/Data, PAP-4) set-up. PRP was prepared from citrated human whole blood by centrifugation at 800 RPM for 15 min at 25° C. 50 μl aliquots of PRP were warmed to 37° C. for 2 minutes, incubated with various concentrations of lRGD and cRGD peptide in the presence of agonist adenosine di-phosphate (ADP, 10 μM) and the maximal aggregation percentage was determined while stifling for 15 min. Consequently, from the maximal aggregation percentage and comparison to aggregation without peptides, inhibition percentage was determined.

[2] = biological target: GPIIb-IIIa (αIIbβ3) (Homo sapiens, UniProt P05106+P08514); conditions: reported in literature; cited from earlier work
Sequence of GPIIb-IIIa (αIIbβ3) (P08514 32-887 limits assumed): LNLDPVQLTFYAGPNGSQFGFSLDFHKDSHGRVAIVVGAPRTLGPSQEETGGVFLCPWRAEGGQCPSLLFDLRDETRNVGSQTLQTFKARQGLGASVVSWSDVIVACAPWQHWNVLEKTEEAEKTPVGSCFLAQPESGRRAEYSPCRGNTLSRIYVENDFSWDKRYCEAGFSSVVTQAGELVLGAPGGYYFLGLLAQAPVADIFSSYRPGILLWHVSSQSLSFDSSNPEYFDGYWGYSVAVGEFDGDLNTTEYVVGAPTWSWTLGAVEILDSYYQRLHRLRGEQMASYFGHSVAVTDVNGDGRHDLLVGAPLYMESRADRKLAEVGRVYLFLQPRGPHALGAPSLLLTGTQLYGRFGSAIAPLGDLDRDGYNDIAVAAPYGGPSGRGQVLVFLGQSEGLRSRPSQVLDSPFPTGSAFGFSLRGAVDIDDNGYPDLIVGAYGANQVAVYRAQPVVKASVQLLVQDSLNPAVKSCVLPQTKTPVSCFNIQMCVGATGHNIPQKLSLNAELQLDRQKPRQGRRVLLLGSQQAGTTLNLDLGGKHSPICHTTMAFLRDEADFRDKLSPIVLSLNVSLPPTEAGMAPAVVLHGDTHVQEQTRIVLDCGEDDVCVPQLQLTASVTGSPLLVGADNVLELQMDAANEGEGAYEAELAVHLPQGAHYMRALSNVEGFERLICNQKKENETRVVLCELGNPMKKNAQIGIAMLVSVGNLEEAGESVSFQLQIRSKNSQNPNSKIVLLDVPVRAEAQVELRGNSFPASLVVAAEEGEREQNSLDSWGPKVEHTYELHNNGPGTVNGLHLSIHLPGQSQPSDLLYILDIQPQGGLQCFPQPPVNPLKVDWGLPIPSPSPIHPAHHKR
Sequence of GPIIb-IIIa (αIIbβ3) (P08514 891-1039 partner limits assumed): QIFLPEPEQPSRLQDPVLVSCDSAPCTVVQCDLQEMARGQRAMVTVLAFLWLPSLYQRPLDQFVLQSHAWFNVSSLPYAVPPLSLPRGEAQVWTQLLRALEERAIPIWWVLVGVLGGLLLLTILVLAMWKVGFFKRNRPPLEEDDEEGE
Sequence of GPIIb-IIIa (αIIbβ3) (P05106 27-788): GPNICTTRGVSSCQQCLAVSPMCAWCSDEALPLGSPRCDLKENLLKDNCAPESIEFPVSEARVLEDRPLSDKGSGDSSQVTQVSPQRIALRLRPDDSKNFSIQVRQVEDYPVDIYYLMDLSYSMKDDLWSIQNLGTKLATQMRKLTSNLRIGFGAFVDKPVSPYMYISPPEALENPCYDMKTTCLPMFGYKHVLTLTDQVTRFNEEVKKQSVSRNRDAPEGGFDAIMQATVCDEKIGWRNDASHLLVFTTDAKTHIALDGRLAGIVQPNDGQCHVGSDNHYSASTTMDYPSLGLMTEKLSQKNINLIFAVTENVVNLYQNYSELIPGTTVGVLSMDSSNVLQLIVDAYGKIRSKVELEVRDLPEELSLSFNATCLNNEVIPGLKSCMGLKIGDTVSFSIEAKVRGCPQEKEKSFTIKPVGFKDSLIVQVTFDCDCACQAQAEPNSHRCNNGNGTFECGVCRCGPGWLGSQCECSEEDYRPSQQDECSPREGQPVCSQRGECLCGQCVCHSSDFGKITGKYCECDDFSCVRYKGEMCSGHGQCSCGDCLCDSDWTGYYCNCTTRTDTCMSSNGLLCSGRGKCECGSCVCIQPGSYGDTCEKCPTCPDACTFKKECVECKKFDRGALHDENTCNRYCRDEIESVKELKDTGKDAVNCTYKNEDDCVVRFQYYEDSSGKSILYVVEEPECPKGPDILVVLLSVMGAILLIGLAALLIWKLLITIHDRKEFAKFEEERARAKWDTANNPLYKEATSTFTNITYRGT

Question: For cyclo-CNPRGDY(-OEt)RC [cRGD], which “IC50 by aggregometry, lower compared to lRGD” value ([1]; FIG. 18 legend) is on record?
Answer: ~2 orders of magnitude

Question: What about the “IC50 (inhibition of platelet aggregation) relative to lRGD” value ([1]; PRP, ADP 10 μM, 37° C.) of the same substance?
Answer: about 1000 times lower

Question: And the “affinity and selectivity for GPIIb-IIIa compared with αvβ3, αvβ5 and α5β1” value [2]?
Answer: high affinity and selectivity for GPIIb-IIIa
